Several values for one entry are separate records, joined by “and”; a condition that tells them apart may be missing. Equal entries are not always repeated. Where two headings read alike, the source gives them in different places.
Key:
[1] = target: T1, full-length His6-JMJD6 (Homo sapiens, UniProt Q6NYC1); assay: SPE-MS kinetics of JMJD6 for O2; format: biochemical
T1 construct: An enzyme mixture (10 μL) containing full-length His6-JMJD6 (5 μM; final concentration: 0.05 μM); made in house; host or cells: Escherichia coli BL21 (DE3), pET-28a(+) plasmid
Experimental: Recombinant human JMJD6 (full length with a N-terminal His6-tag) was produced in Escherichia coli BL21 (DE3) cells using a pET-28a(+) plasmid and purified by standard Ni(II)-affinity size-exclusion chromatography, as previously reported.[40] […] Purified JMJD6 was stored at −78 °C; fresh aliquots were used for all JMJD6 assays.
Assays to determine the kinetic parameters of JMJD6 for O2 were performed in 2 mL gas-tight glass vials (Sigma-Aldrich) in independent triplicates. 50 mM Tris buffer (pH 7.5; 0.95 mL) was incubated in a 2 mL gas-tight glass vial at 37 °C for 30 min with a fixed O2 concentration (in N2; specified in Fig S9, ESI ^†), adjusted using a mass flow controller. […] The JMJD6-catalysed reaction was performed at 37 °C at a fixed O2 concentration and was stopped after the reaction time specified (Fig. S9, ESI ^†) by the addition of 20%v/v aqueous formic acid (100 μL) and analysed by SPE-MS. The %-concentration of O2 in N2, adjusted with a mass flow controller, was converted into an O2 concentration [μM] by calibration using a standard (i.e., y[μM] = 9.026·x[%]).[100] Data were analysed by SPE-MS as described above to calculate apparent JMJD6 kinetic parameters for O2.

[2] = test system: AspH; settings: AspH versus JMJD6
[3] = test system: PHD2; settings: PHD2 versus JMJD6
[4] = test system: KDM4A; settings: KDM4A versus JMJD6
[5] = test system: AspH; settings: AspH (0.1 μM), hFX-CP101–119 as substrate, cited from earlier work
[6] = test system: FIH; settings: FIH (5 μM), HIF-1α789–822 as substrate, cited from earlier work
[7] = test system: PHD2; settings: PHD2 (4 μM), cited from earlier work; for k cat: O2
[8] = test system: KDM4A; settings: KDM4A (1 μM), H3_1–15K9me3 as substrate; cited from earlier work
[9] = test system: KDM4C; settings: KDM4C (3 μM), H3_1–15K9me3 as substrate, oxygen consumption assay, cited from earlier work
[10] = test system: KDM4E; settings: KDM4E (2.1 μM), H3_1–15K9me3 as substrate, oxygen consumption assay, cited from earlier work
[11] = test system: type I human collagen prolyl 4-hydroxylase (CP4H-I); settings: (Pro-Pro-Gly)10 as substrate, [14C]CO2 release; cited from earlier work
[12] = test system: phytanoyl-CoA dioxygenase (PHYH); settings: PHYH (50 μM), isovaleryl-CoA as substrate, oxygen consumption assay, cited from earlier work

K^app m (O2) of JMJD6: fold greater than CP4H-I ([1]; JMJD6/BRD4_511–550 versus CP4H-I (ref 26)): ~2 fold
K^app m (O2) of JMJD6: fold greater than KDM6B ([1]; JMJD6/BRD4_511–550 versus KDM6B (ref 96)): ~4 fold
apparent Michaelis constant K^app m for O2 ([1]; O2 varied, BRD4_511–550 (2 μM) as substrate, 0.05 μM full-length His6-JMJD6, 50 mM Tris pH 7.5, 37 °C, quenched after 60 or 90 s, SPE-MS, mean ± SD n = 3): 69.8 ± 11.4 µM and 74 ± 14 µM
apparent turnover number k^app cat ([1]; O2 varied, BRD4_511–550 (2 μM) as substrate, 0.05 μM full-length His6-JMJD6, 50 mM Tris pH 7.5, 37 °C, quenched after 60 or 90 s, mean ± SD n = 3): 0.12 ± 0.01 s⁻¹
specificity constant kcat/Km ([1]; O2 varied, BRD4_511–550 (2 μM) as substrate, 0.05 μM full-length His6-JMJD6, pH 7.5, 37 °C, n = 3): 1700 ± 400 M⁻¹ s⁻¹
SMILES: O=O [O2, dioxygen]
K^app m (O2): fold greater than that of JMJD6 [2]: ~6 fold
K^app m (O2): fold greater than that of JMJD6 [3]: ~6 fold
K^app m (O2): fold greater than that of JMJD6 [4]: ~2 fold
K m for O2 [5]: 426 ± 73 µM
k cat ([5]; O2): 0.23 ± 0.04 s⁻¹
K m for O2 [6]: 110 ± 30 µM
k cat ([6]; O2): 0.56 ± 0.04 s⁻¹
k cat ([7]; HIF-1α395–413 as substrate): 0.028 ± 0.001 s⁻¹
k cat ([7]; HIF-1α556–574 as substrate): 0.06 ± 0.01 s⁻¹
K m for O2 ([7]; HIF-1α395–413 as substrate): >450 µM
K m for O2 ([7]; HIF-1α556–574 as substrate): 460 ± 30 µM
K m for O2 [8]: 173 ± 23 µM
K m for O2 [9]: 158 ± 13 µM
k cat ([9]; O2): 0.043 ± 0.001 s⁻¹
K m for O2 [10]: 197 ± 16 µM
k cat ([10]; O2): 0.067 ± 0.001 s⁻¹
K m for O2 [11]: ~40 µM
k cat ([12]; O2): 0.016 s⁻¹
K m for O2 [12]: 93 ± 43 µM

From PMC11878239, “Biochemical investigations using mass spectrometry to monitor JMJD6-catalysed hydroxylation of multi-lysine containing bromodomain-derived substrates” (RSC Chemical Biology, 2025)
